Molecules are shown by their SMILES.

The target in this test is T1, BTK (Homo sapiens, UniProt Q06187).
T1 construct: endogenous in cells; host or cells: TMD8 cells
T1 sequence (Q06187 whole entry): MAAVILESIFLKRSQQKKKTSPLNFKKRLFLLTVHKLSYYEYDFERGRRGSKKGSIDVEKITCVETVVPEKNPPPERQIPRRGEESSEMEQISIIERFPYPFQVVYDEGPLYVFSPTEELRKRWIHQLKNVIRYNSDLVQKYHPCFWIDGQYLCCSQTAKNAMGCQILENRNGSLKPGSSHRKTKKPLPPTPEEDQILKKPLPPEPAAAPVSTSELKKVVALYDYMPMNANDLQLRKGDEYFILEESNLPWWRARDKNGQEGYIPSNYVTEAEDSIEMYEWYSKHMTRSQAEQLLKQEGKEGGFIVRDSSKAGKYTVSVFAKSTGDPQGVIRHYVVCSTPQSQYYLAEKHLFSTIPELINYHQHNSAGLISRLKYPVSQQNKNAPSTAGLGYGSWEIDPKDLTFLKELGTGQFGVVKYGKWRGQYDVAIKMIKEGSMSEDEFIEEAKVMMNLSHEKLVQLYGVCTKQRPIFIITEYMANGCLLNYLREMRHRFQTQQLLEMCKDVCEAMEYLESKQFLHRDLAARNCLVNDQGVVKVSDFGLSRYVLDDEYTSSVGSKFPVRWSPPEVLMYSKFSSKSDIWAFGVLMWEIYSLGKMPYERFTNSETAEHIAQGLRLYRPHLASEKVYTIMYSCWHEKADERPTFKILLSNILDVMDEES
Nature of the test: Cellular BTK HTRF assay (BTK degradation) in TMD8 cells. In kind it is cell-based. As to conditions: four hours incubation, Total-BTK HTRF relative to DMSO-treated cells. On the procedure: Example 66: BTK Degradation Assay
TMD8 cells were obtained from Tokyo Medical and Dental University and were grown in alpha-MEM (Fisher 12571063) supplemented with 10% heat-inactivated FBS (Corning Premium Fetal Bovine Serum from Fisher, MT35015CV).
Compounds of the present invention were added to 50,000 TMD8 cells in round-bottom 96 well plates with a final DMSO concentration of […] and were incubated at 37° C. 5% CO2 for four hours. BTK levels were determined using Cisbio Total-BTK HTRF ([…] Time-Resolved Fluorescence) kit (63ADK064PEG) according to manufacturer's protocol. Briefly, cells were incubated in 1× supplied lysis buffer for 30 minutes. In an opaque white low volume 96 well plate (Cisbio, 66PL96005), cell lysate was combined with two different specific BTK antibodies, one conjugated with Eu^3+-Cryptate FRET donor and one conjugated with d2 FRET acceptor. Assay controls include wells containing cell lysate with only the Eu^3+-Cryptate FRET donor antibody and wells containing both HTRF antibodies and lysis buffer without cells or control lysate provided by Cisbio. HTRF ratio was calculated as (acceptor signal at 665 nm/donor signal at 620 nm)×10^4. Background HTRF levels were determined from the control well containing the donor, but no acceptor, antibody. Background HTRF levels were subtracted from all samples. Readouts were reported as HTRF levels relative to HTRF levels of DMSO-treated cells. Four-parameter non-linear regressions were performed in GraphPad Prism 7.02 to obtain DC50 values. DC50 values are provided in Table 3, wherein A<5.0 nM, 5.0 nM≤B≤15 nM, and 15 nM<C.
(In TR-FRET formats the signal depends on donor and acceptor labels being close together.)
The DC50 is the midpoint of the concentration-degradation curve. `CN1CCN([C@H]2CCCN(c3cnc(C(N)=O)c(Nc4ccc(C5(C)CCN([C@H]6C[C@H](Nc7cccc8c7C(=O)N(C7CCC(=O)NC7=O)C8=O)C6)CC5)cc4)n3)C2)C1=O` (stereo partly drawn) [Compound 103] gave a DC50 of less than 5 nM. As for `CN1CCN([C@@H]2CCCN(c3cnc(C(N)=O)c(Nc4ccc(N5CCC6CCN(Cc7ccc8c(c7)C(=O)N(N7CCC(=O)NC7=O)C8=O)CC6C5)cc4)n3)C2)C1=O` (stereo partly drawn) [Compound 104], the figure is 5 to 15 nM; as for `CN1CCN([C@@H]2CCCN(c3cnc(C(N)=O)c(Nc4ccc(N5CCC6CCN(c7cccc8c7C(=O)N(N7CCC(=O)NC7=O)C8=O)CC6C5)cc4)n3)C2)C1=O` (stereo partly drawn) [Compound 105], greater than 15 nM; as for `CN1CCN([C@H]2CCCN(c3cnc(C(N)=O)c(Nc4ccc(N5CC[C@H]6CCN(c7ccc8c(c7)C(=O)N(N7CCC(=O)NC7=O)C8=O)C[C@H]6C5)cc4)n3)C2)C1=O` [Compound 106], 5 to 15 nM.

`CN1CCN([C@H]2CCCN(c3cnc(C(N)=O)c(Nc4ccc(N5CC[C@@H]6CCN(c7ccc8c(c7)C(=O)N(N7CCC(=O)NC7=O)C8=O)C[C@H]6C5)cc4)n3)C2)C1=O` [Compound 107] displayed a DC50 greater than 15 nM. Molecule `CN1CCN([C@H]2CCCN(c3cnc(C(N)=O)c(Nc4ccc(N5CCC6(CCCN(Cc7ccc8c(c7)C(=O)N(N7CCC(=O)NC7=O)C8=O)C6)CC5)cc4)n3)C2)C1=O` [Compound 108] returned a DC50 of 5 to 15 nM. As for `CN1CCN([C@H]2CCCN(c3cnc(C(N)=O)c(Nc4ccc(N5CCC6(CC5)CCN(c5ccc7c(c5)C(=O)N(C5CCC(=O)NC5=O)C7=O)C6)cc4)n3)C2)C1=O` (stereo partly drawn) [Compound 109], the figure is less than 5 nM; as for `CN1CCN([C@H]2CCCN(c3cnc(C(N)=O)c(Nc4ccc(N5CCN(CCCCc6cccc7c6CN(C6CCC(=O)NC6=O)C7=O)CC5)nc4)n3)C2)C1=O` (stereo partly drawn) [Compound 110], less than 5 nM; as for `CN1CCN([C@H]2CCCN(c3cnc(C(N)=O)c(Nc4ccc(N5CCCC6(C5)CN(c5ccc7c(c5)C(=O)N(C5CCC(=O)NC5=O)C7=O)C6)cc4)n3)C2)C1=O` (stereo partly drawn) [Compound 111], 5 to 15 nM. Regarding `CN1CCN([C@H]2CCCN(c3cnc(C(N)=O)c(Nc4ccc(N5CCC6(CC5)CN(c5ccc7c(c5)C(=O)N(N5CCC(=O)NC5=O)C7=O)C6)cc4)n3)C2)C1=O` [Compound 112], the half-maximal degradation concentration (DC50) is less than 5 nM. As for `CN1CCN([C@@H]2CCCN(c3cnc(C(N)=O)c(Nc4ccc(N5CCN(C[C@H]6CCN(c7ccc8c(c7)C(=O)N(C7CCC(=O)NC7=O)C8=O)C6)CC5)nc4)n3)C2)C1=O` (stereo partly drawn) [Compound 113], the figure is less than 5 nM; as for `CN1CCN([C@@H]2CCCN(c3cnc(C(N)=O)c(Nc4ccc(N5CC6CN(CC7CCN(c8ccc9c(c8)C(=O)N(N8CCC(=O)NC8=O)C9=O)CC7)CC6C5)cc4)n3)C2)C1=O` (stereo partly drawn) [Compound 114], less than 5 nM; as for `CN1CCN([C@@H]2CCCN(c3cnc(C(N)=O)c(Nc4ccc(C5CCN(C[C@H]6CCN(c7ccc8c(=O)n(C9CCC(=O)NC9=O)ccc8c7)C6)CC5)cc4)n3)C2)C1=O` (stereo partly drawn) [Compound 115], less than 5 nM. As for `CN1CCN([C@@H]2CCCN(c3cnc(C(N)=O)c(Nc4ccc(C5CCN(CC6CN(c7ccc8c(=O)n(C9CCC(=O)NC9=O)ccc8c7)C6)CC5)cc4)n3)C2)C1=O` (stereo partly drawn) [Compound 116], the figure is less than 5 nM; as for `CN1CCN([C@@H]2CCCN(c3cnc(C(N)=O)c(Nc4ccc(C5CCN(C[C@H]6CCN(c7ccc8c(c7)CN(C7CCC(=O)NC7=O)C8=O)C6)CC5)cc4)n3)C2)C1=O` (stereo partly drawn) [Compound 117], less than 5 nM. As for `CN1CCN([C@@H]2CCCN(c3cnc(C(N)=O)c(Nc4ccc(C5CN(CC6CCN(c7cnn(C8CCC(=O)NC8=O)c(=O)c7)CC6)C5)cc4)n3)C2)C1=O` (stereo partly drawn) [Compound 118], the figure is less than 5 nM; as for `CN1CCN([C@@H]2CCCN(c3cnc(C(N)=O)c(Nc4ccc(C5CN(CC6CCN(c7ccc(-c8nn(C9CCC(=O)NC9=O)c(=O)n8C)cc7)CC6)C5)cc4)n3)C2)C1=O` (stereo partly drawn) [Compound 119], less than 5 nM. Molecule `CN1CCN([C@@H]2CCCN(c3cnc(C(N)=O)c(Nc4ccc(C5CCN(CC6CCN(c7cnn(C8CCC(=O)NC8=O)c(=O)c7)CC6)CC5)cc4)n3)C2)C1=O` (stereo partly drawn) [Compound 120] showed a DC50 of less than 5 nM. As for `CN1CCN([C@@H]2CCCN(c3cnc(C(N)=O)c(Nc4ccc(C5CCN(CC6CCN(c7ccc(-c8nn(C9CCC(=O)NC9=O)c(=O)n8C)cc7)CC6)CC5)cc4)n3)C2)C1=O` (stereo partly drawn) [Compound 121], the figure is less than 5 nM; as for `NC(=O)c1ncc(N2CCC[C@H](N3CCCC3=O)C2)nc1Nc1ccc(C2CCN(CC3CCN(c4ccc5c(c4)CCN(C4CCC(=O)NC4=O)C5=O)CC3)CC2)cc1` (stereo partly drawn) [Compound 122], less than 5 nM. In the case of `NC(=O)c1ncc(N2CCCCC2)nc1Nc1ccc(N2CCC3(CC2)CCN(c2ccc4c(c2)C(=O)N(C2CCC(=O)NC2=O)C4=O)CC3)cc1` (stereo not drawn) [Compound 124] it was greater than 15 nM; in that of `NC(=O)c1ncc(-n2cccn2)nc1Nc1ccc(C2CCN(C[C@H]3CCN(c4ccc5c(c4)C(=O)N(C4CCC(=O)NC4=O)C5=O)C3)CC2)cc1` (stereo partly drawn) [Compound 125], less than 5 nM; in that of `NC(=O)c1ncc(N2CCCC3(COC3)C2)nc1Nc1ccc(C2CCN(C[C@H]3CCN(c4ccc5c(c4)C(=O)N(C4CCC(=O)NC4=O)C5=O)C3)CC2)cc1` (stereo partly drawn) [Compound 126], less than 5 nM. On to `NC(=O)c1ncc(-n2ccc(C(F)(F)F)n2)nc1Nc1ccc(C2CCN(CC3CCN(c4ccc5c(=O)n(C6CCC(=O)NC6=O)ccc5c4)CC3)CC2)cc1` (stereo not drawn) [Compound 127], for which the DC50 was greater than 15 nM.

Molecule `NC(=O)c1ncc(-n2ccc(C(F)(F)F)n2)nc1Nc1ccc(C2CCN(C[C@H]3CCN(c4ccc5c(c4)C(=O)N(C4CCC(=O)NC4=O)C5=O)C3)CC2)cc1` (stereo partly drawn) [Compound 128] gave a DC50 greater than 15 nM. As for `CN1CCN([C@H]2CCCN(c3cnc(C(N)=O)c(Nc4ccc(C5CCN(CC6CCN(c7ccc(NC8CCC(=O)NC8=O)cn7)CC6)CC5)cc4)n3)C2)C1=O` (stereo partly drawn) [Compound 129], the figure is less than 5 nM; as for `CN1CCN([C@H]2CCCN(c3cnc(C(N)=O)c(Nc4ccc(C5CCN(CC6CCN(c7ccc(C(=O)NC8CCC(=O)NC8=O)cc7)CC6)CC5)cc4)n3)C2)C1=O` (stereo partly drawn) [Compound 130], less than 5 nM.

In turn, `Cn1cc(Nc2nc(N3CCC[C@H](N4CC5(CN(CC6CCN(c7ccc(NC8CCC(=O)NC8=O)nc7)CC6)C5)OC4=O)C3)cnc2C(N)=O)cn1` (stereo partly drawn) [Compound 132] yielded a DC50 of less than 5 nM. As for `NC(=O)c1ncc(N2CCCCC2)nc1Nc1ccc(C2CCN(CC3CCN(c4ccc5c(=O)n(C6CCC(=O)NC6=O)ccc5c4)CC3)CC2)cc1` (stereo not drawn) [Compound 133], the DC50 was less than 5 nM. In the case of `CN1CCN([C@@H]2CCCN(c3cnc(C(N)=O)c(Nc4ccc(C5CCN(C[C@H]6CCN(c7ccc8c(=O)n(C9CCC(=O)NC9=O)ccc8c7)C6)CC5)cc4)n3)C2)C1=O` (stereo partly drawn) [Compound 134] it was less than 5 nM; in that of `Cn1c(-c2ccc(N3CC(CN4CCC(c5ccc(Nc6nc(N7CCC[C@H](N8CCCC8=O)C7)cnc6C(N)=O)cc5)CC4)C3)cc2)nn(C2CCC(=O)NC2=O)c1=O` (stereo partly drawn) [Compound 135], less than 5 nM. As for `CN1CCN([C@H]2CCCN(c3cnc(C(N)=O)c(Nc4ccc(C5CCN(CC6CN(c7ccc(-c8nn(C9CCC(=O)NC9=O)c(=O)n8C)cc7)C6)CC5)cc4)n3)C2)C1=O` (stereo partly drawn) [Compound 136], the figure is less than 5 nM; as for `Cn1cc(Nc2nc(N3CCC[C@@H](N4CCC5(CN(CC6CCN(c7ccc8c(c7)C(=O)N(C7CCC(=O)NC7=O)C8=O)CC6)C5)C4=O)C3)cnc2C(N)=O)cn1` (stereo partly drawn) [Compound 137], less than 5 nM.

Source of the values: US11479556B1, “Bifunctional compounds for degrading BTK via ubiquitin proteosome pathway” (NURIX THERAPEUTICS, INC., priority 2018, dated 2022).
